According to PMC9011347, “Small-Molecule Inhibitors Targeting Lipolysis in Human Adipocytes” (Journal of the American Chemical Society, 2022):

Key:
Experiment in all cases: TAG hydrolase assay, humanized mouse ATGL variants
Format in all cases: biochemical
[1] = biological target: T1, mouse ATGL N68K (Mus musculus, UniProt Q8BJ56, N68K); conditions: variant N68K, NG-497 (10 μM) or Atglistatin (10 μM)
T1 construct: host or cells: Expi293 cells, cell lysate
Experimental: (§1) Figure 5 Analysis of chimeric proteins comprising human and mouse ATGL. (a) Schematic view of the minimal active domain of wild-type and chimeric ATGL variants (c1–c9). Nonidentical aa are indicated in blue and red for mouse and human ATGL, respectively. ATGL variants were expressed in Expi293 cells and TAG hydrolase activity was determined in cell lysates in the presence or absence of NG-497 (10 μM) and Atglistatin (10 μM), respectively. Inhibition of ATGL variants by respective inhibitors (tick mark) and lack of inhibition (cross) is indicated at the right edge. The expression of all ATGL variants was confirmed by Western blotting analysis (Figure S6). (b) Dose-dependent inhibition of human ATGL (aa 1–288) and c1 (human aa 1–158 and mouse aa 159–288) by NG-497. (c) Dose-dependent inhibition of mouse ATGL (aa 1–288) and c2 (mouse aa 1–158 and human aa 159–288) by Ai. IC50 values are shown in the insets. Data are presented as relative inhibition of respective DMSO controls and are indicated as mean ± SD. (d) 3D homology model of the minimal active domain of mouse ATGL (M1–L254) depicted as a cartoon. Residues 1–178 are in blue, and residues 179–254 are in gray. S47 and D166 comprising the active site are represented as green sticks. T101, C106, R109, N111, and S133 are colored in orange, A60, N68, I69, T93, C97, and T146 are colored in magenta. TEXT PRINTED IN THE PICTURE: (b) NG-497: IC50 [μM] (human): 1.3±0.1; IC50 [μM] (c1): 1.3±0.1 | (b) Ai: IC50 [μM] (human): n.det.; IC50 [μM] (c1): n.det. | (c) NG-497: IC50 [μM] (mouse): n.det.; IC50 [μM] (c2): n.det. | (c) Ai: IC50 [μM] (mouse): 2.5±0.3; IC50 [μM] (c2): 2.4±0.1 […]
(§2) The region between aa 60 and 146 of human and mouse ATGL comprises 12 nonidentical aa. We generated 3D homology models for the minimal active domain of mouse ATGL to obtain more detailed insight into the topology of the relevant region (Figure 5d). Based on this model, aa T101, C106, R109, N111, and S133 locate at peripheral (loop) regions (indicated in orange, Figure 5d). […] For all other nonidentical aa (indicated in magenta, Figure 5d), we generated variants with single aa substitutions. The humanized variants A60V, N68K, T93I, and C97F were inactivated by Ai but not NG-497 (Figure 5a).
(§3) Experimental details, materials, and methods
(§4) Expression of recombinant ATGL constructs and preparation of cell lysates. Expi293 cells were cultivated in Expi293 Expression Medium (GIBCO, Thermo Fisher Scientific, Waltham, USA) at standard conditions (37°C, 5% CO2, 95% humidified atmosphere, 125 rpm). DNA constructs containing ATGL from different species and chimeric ATGL variants in pcDNA3.1(+)myc-His C Vector were obtained from BioCat GmbH (Heidelberg, Germany). Cells were transfected with ExpiFectamine293 Transfection Kit (GIBCO) in Opti-Mem reduced serum medium (GIBCO) according to the manufacturer’s instructions. After 48 h, cells were harvested by centrifugation and washed three times with PBS. Cells were disrupted in buffer A (0.25 M sucrose, 1 mM EDTA, 1 mM dithiothreitol, 20µg/ml leupeptin, 2 µg/ml antipain, 1 µg/ml pepstatin, pH 7.0) by sonication (Virsonic 475, Virtis, Gardiner, USA). Nuclei and debris were removed by centrifugation at 1,000 g and 4°C for 10 min. Protein concentrations were determined using Bio-Rad protein assay (Bio-Rad 785, Bio-Rad Laboratories, Munich, Germany) using BSA as standard.
(§5) Expression and purification of mouse CGI-58. CGI-58 was expressed and purified as described 1. In brief, the coding sequence of mouse Cgi-58 was cloned into pHis-Sumo and co-transformed with the plasmid pTf16 expressing the chaperone Tig into E. coli BL21(DE3). Cells were cultured overnight at 37°C and 180 rpm in the presence of 40 µg/ml kanamycin and 34 µg/ml chloramphenicol. Thereafter, cells were transferred into fresh LB medium, grown until OD600 of 0.6, and expression was induced by the addition of 0.5 mM IPTG. After overnight incubation at 30°C, cells were harvested at 4,500 x g and 4°C for 20 min, […]

[2] = biological target: T2, mouse ATGL T93I (Mus musculus, UniProt Q8BJ56, T93I); conditions: variant T93I, NG-497 (10 μM) or Atglistatin (10 μM)
T2 construct: host or cells: Expi293 cells, cell lysate
T2 sequence (Q8BJ56 whole entry T93I): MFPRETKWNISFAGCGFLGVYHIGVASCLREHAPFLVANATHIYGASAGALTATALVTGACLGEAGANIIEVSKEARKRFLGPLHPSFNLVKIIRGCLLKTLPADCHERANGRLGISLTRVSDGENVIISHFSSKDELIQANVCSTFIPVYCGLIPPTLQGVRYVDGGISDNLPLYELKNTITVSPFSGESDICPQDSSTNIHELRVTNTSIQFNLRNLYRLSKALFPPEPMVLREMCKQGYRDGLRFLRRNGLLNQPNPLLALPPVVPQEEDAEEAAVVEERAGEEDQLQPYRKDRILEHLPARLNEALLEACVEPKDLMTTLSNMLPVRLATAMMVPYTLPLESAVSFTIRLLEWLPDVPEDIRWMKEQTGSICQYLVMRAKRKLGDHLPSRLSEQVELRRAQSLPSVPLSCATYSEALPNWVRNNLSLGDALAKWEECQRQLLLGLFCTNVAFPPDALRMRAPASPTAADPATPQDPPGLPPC
Experimental: as §1, §2, §3, §4, §5

[3] = biological target: T3, mouse ATGL A60V (Mus musculus, UniProt Q8BJ56, A60V); conditions: variant A60V, NG-497 (10 μM) or Atglistatin (10 μM)
T3 construct: host or cells: Expi293 cells, cell lysate
T3 sequence (Q8BJ56 whole entry A60V): as the sequence (Q8BJ56 whole entry T93I) above, with A60V, I93T counted along it
Experimental: as §1, §2, §3, §4, §5

[4] = biological target: T4, mouse ATGL C97F (Mus musculus, UniProt Q8BJ56, C97F); conditions: variant C97F, NG-497 (10 μM) or Atglistatin (10 μM)
T4 construct: host or cells: Expi293 cells, cell lysate
T4 sequence (Q8BJ56 whole entry C97F): as the sequence (Q8BJ56 whole entry T93I) above, with I93T, C97F counted along it
Experimental: as §1, §2, §3, §4, §5

Measured: inhibition of TAG hydrolase activity

T1 sequence (Q8BJ56 whole entry N68K): as the sequence (Q8BJ56 whole entry T93I) above, with N68K, I93T counted along it

CN(C)C(=O)Nc1cccc(-c2ccc(N(C)C)cc2)c1 [Atglistatin, reference compound]
inactivated: all assays above
